Source: PubChem BioAssay AID2060500 (Molecular Pharmacology Branch, DTP, NCI, 2025)

Tested on: 596521-263-R-J1-PDC complex spheroids, viability % of control
Test: Anticancer human tumor 596521-263-R-J1-PDC patient-derived soft tissue sarcoma cell line growth inhibition [GQUAD]
Conditions: for IC50: curve of first compound; for viability, T/C: stronger effect = lower value
Procedure, shortened: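 Viability of tumor cells grown as complex spheroids with endothelial and stromal cells, exposed to drug combinations. Top concentration at or near clinical Cmax (else 10 microM), diluted in half-log increments.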

[1] = second compound 0.0316 µM, first compound 0.0316 µM
[2] = second compound 0.0316 µM, first compound 0.1 µM
[3] = second compound 0.0316 µM, first compound 0.316 µM
[4] = second compound 0.0316 µM, first compound 1 µM
[5] = second compound 0.0316 µM, first compound 3.16 µM
[6] = second compound 0.0316 µM, first compound 10 µM
[7] = second compound 0.1 µM, first compound 0.0316 µM
[8] = second compound 0.1 µM, first compound 0.1 µM
[9] = second compound 0.1 µM, first compound 0.316 µM
[10] = second compound 0.1 µM, first compound 1 µM
[11] = second compound 0.1 µM, first compound 3.16 µM
[12] = second compound 0.1 µM, first compound 10 µM
[13] = second compound 0.316 µM, first compound 0.0316 µM
[14] = second compound 0.316 µM, first compound 0.1 µM
[15] = second compound 0.316 µM, first compound 0.316 µM
[16] = second compound 0.316 µM, first compound 1 µM
[17] = second compound 0.316 µM, first compound 3.16 µM
[18] = second compound 0.316 µM, first compound 10 µM
[19] = second compound 1 µM, first compound 0.0316 µM
[20] = second compound 1 µM, first compound 0.1 µM
[21] = second compound 1 µM, first compound 0.316 µM
[22] = second compound 1 µM, first compound 1 µM
[23] = second compound 1 µM, first compound 3.16 µM
[24] = second compound 1 µM, first compound 10 µM
[25] = second compound 3.16 µM, first compound 0.0316 µM
[26] = second compound 3.16 µM, first compound 0.1 µM
[27] = second compound 3.16 µM, first compound 0.316 µM
[28] = second compound 3.16 µM, first compound 1 µM
[29] = second compound 3.16 µM, first compound 3.16 µM
[30] = second compound 3.16 µM, first compound 10 µM
[31] = second compound 10 µM, first compound 0.0316 µM
[32] = second compound 10 µM, first compound 0.1 µM
[33] = second compound 10 µM, first compound 0.316 µM
[34] = second compound 10 µM, first compound 1 µM
[35] = second compound 10 µM, first compound 3.16 µM
[36] = second compound 10 µM, first compound 10 µM
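Further: spheroids exposed to drugs for 7 days before viability reading.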
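Wherever viability, T/C is given: 100% = DMSO vehicle control viability.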

CC(C)n1c(=O)n(C)c2cnc3cc(F)c(-c4ccc(OCCCN5CCCCC5)nc4)cc3c21 + Cc1cnc(CNC(=O)c2c(=O)c3ccc(N4CCCN(C)CC4)nc3n3c2sc2ccccc23)cn1
IC50 (second compound 0.0316 µM): > 10000 nM | IC50 (second compound 0.1 µM): > 10000 nM | IC50 (second compound 0.316 µM): > 10000 nM | IC50 (second compound 1 µM): > 10000 nM | IC50 (second compound 3.16 µM): 224 nM | IC50 (second compound 10 µM): < 31.6 nM | viability, T/C [1]: 82.1% | viability, T/C [2]: 67% | viability, T/C [3]: 78.3% | viability, T/C [4]: 73% | viability, T/C [5]: 75.5% | viability, T/C [6]: 61.9% | viability, T/C [7]: 70.6% | viability, T/C [8]: 61.3% | viability, T/C [9]: 68.2% | viability, T/C [10]: 63.9% | viability, T/C [11]: 58.6% | viability, T/C [12]: 57.8% | viability, T/C [13]: 69.3% | viability, T/C [14]: 67.3% | viability, T/C [15]: 63.5% | viability, T/C [16]: 62.5% | viability, T/C [17]: 62.4% | viability, T/C [18]: 47.6% | viability, T/C [19]: 63.8% | viability, T/C [20]: 61.8% | viability, T/C [21]: 52.3% | viability, T/C [22]: 54.3% | viability, T/C [23]: 64.4% | viability, T/C [24]: 48.3% | viability, T/C [25]: 51.6% | viability, T/C [26]: 53.3% | viability, T/C [27]: 49.7% | viability, T/C [28]: 46.4% | viability, T/C [29]: 42.5% | viability, T/C [30]: 40.3% | viability, T/C [31]: 51.8% | viability, T/C [32]: 44.7% | viability, T/C [33]: 44.9% | viability, T/C [34]: 44.9% | viability, T/C [35]: 46.7% | viability, T/C [36]: 9.8%

CC1COCCN1c1cc(-c2ccnn2C)c2ccnc(-c3ccn[nH]3)c2n1 (stereo not given) + Cc1cnc(CNC(=O)c2c(=O)c3ccc(N4CCCN(C)CC4)nc3n3c2sc2ccccc23)cn1
IC50 (second compound 0.0316 µM): 333 nM | IC50 (second compound 0.1 µM): 367 nM | IC50 (second compound 0.316 µM): 191 nM | IC50 (second compound 1 µM): 62.4 nM | IC50 (second compound 3.16 µM): 90.9 nM | IC50 (second compound 10 µM): < 31.6 nM | viability, T/C [1]: 55.9% | viability, T/C [2]: 55.6% | viability, T/C [3]: 48.3% | viability, T/C [4]: 42.5% | viability, T/C [5]: 27.4% | viability, T/C [6]: 23.2% | viability, T/C [7]: 53.1% | viability, T/C [8]: 65.6% | viability, T/C [9]: 47% | viability, T/C [10]: 41.8% | viability, T/C [11]: 29.7% | viability, T/C [12]: 28.1% | viability, T/C [13]: 57.4% | viability, T/C [14]: 51.3% | viability, T/C [15]: 49% | viability, T/C [16]: 41.2% | viability, T/C [17]: 33% | viability, T/C [18]: 25.1% | viability, T/C [19]: 52.2% | viability, T/C [20]: 47.8% | viability, T/C [21]: 42.9% | viability, T/C [22]: 34% | viability, T/C [23]: 26.8% | viability, T/C [24]: 26.6% | viability, T/C [25]: 49.8% | viability, T/C [26]: 52.3% | viability, T/C [27]: 45.3% | viability, T/C [28]: 38% | viability, T/C [29]: 29.4% | viability, T/C [30]: 21.2% | viability, T/C [31]: 39.7% | viability, T/C [32]: 35% | viability, T/C [33]: 33.3% | viability, T/C [34]: 30.4% | viability, T/C [35]: 25% | viability, T/C [36]: 14.1%

CC1COCCN1c1cc(C2(O)CC3CCC(C2)O3)c2cnn(-c3ccn[nH]3)c2n1 (stereo not given) + Cc1cnc(CNC(=O)c2c(=O)c3ccc(N4CCCN(C)CC4)nc3n3c2sc2ccccc23)cn1
IC50 (second compound 0.0316 µM): 211 nM | IC50 (second compound 0.1 µM): 115 nM | IC50 (second compound 0.316 µM): 158 nM | IC50 (second compound 1 µM): 63.7 nM | IC50 (second compound 3.16 µM): < 31.6 nM | IC50 (second compound 10 µM): < 31.6 nM | viability, T/C [1]: 65.1% | viability, T/C [2]: 60.9% | viability, T/C [3]: 42.7% | viability, T/C [4]: 34.6% | viability, T/C [5]: 25.5% | viability, T/C [6]: 13.8% | viability, T/C [7]: 61% | viability, T/C [8]: 49.9% | viability, T/C [9]: 42.3% | viability, T/C [10]: 33% | viability, T/C [11]: 24.9% | viability, T/C [12]: 15.2% | viability, T/C [13]: 56.9% | viability, T/C [14]: 54% | viability, T/C [15]: 47.1% | viability, T/C [16]: 29.7% | viability, T/C [17]: 26.5% | viability, T/C [18]: 13.6% | viability, T/C [19]: 56.2% | viability, T/C [20]: 44.2% | viability, T/C [21]: 38.9% | viability, T/C [22]: 31.4% | viability, T/C [23]: 23.9% | viability, T/C [24]: 13.8% | viability, T/C [25]: 49.2% | viability, T/C [26]: 40.2% | viability, T/C [27]: 41.5% | viability, T/C [28]: 24.8% | viability, T/C [29]: 27.5% | viability, T/C [30]: 14.4% | viability, T/C [31]: 37.7% | viability, T/C [32]: 32.6% | viability, T/C [33]: 33.6% | viability, T/C [34]: 27.9% | viability, T/C [35]: 18.2% | viability, T/C [36]: 4.21%

CC1COCCN1c1cc(C2(S(C)(=N)=O)CC2)nc(-c2ccnc3[nH]ccc23)n1 (stereo not given) + Cc1cnc(CNC(=O)c2c(=O)c3ccc(N4CCCN(C)CC4)nc3n3c2sc2ccccc23)cn1
IC50 (second compound 0.0316 µM): 8980 nM | IC50 (second compound 0.1 µM): 6390 nM | IC50 (second compound 0.316 µM): > 10000 nM | IC50 (second compound 1 µM): 6210 nM | IC50 (second compound 3.16 µM): 103 nM | IC50 (second compound 10 µM): < 31.6 nM | viability, T/C [1]: 91.2% | viability, T/C [2]: 101% | viability, T/C [3]: 86.4% | viability, T/C [4]: 87.3% | viability, T/C [5]: 67.1% | viability, T/C [6]: 48.3% | viability, T/C [7]: 84% | viability, T/C [8]: 93.5% | viability, T/C [9]: 76.1% | viability, T/C [10]: 72.5% | viability, T/C [11]: 59.4% | viability, T/C [12]: 44.2% | viability, T/C [13]: 83% | viability, T/C [14]: 75.5% | viability, T/C [15]: 66.7% | viability, T/C [16]: 72.1% | viability, T/C [17]: 55.6% | viability, T/C [18]: 51.8% | viability, T/C [19]: 58% | viability, T/C [20]: 64.6% | viability, T/C [21]: 66.7% | viability, T/C [22]: 56.8% | viability, T/C [23]: 53% | viability, T/C [24]: 47.4% | viability, T/C [25]: 57% | viability, T/C [26]: 50.5% | viability, T/C [27]: 48.1% | viability, T/C [28]: 45.1% | viability, T/C [29]: 51.9% | viability, T/C [30]: 47% | viability, T/C [31]: 46.6% | viability, T/C [32]: 41.9% | viability, T/C [33]: 49.3% | viability, T/C [34]: 39.4% | viability, T/C [35]: 40.3% | viability, T/C [36]: 37.6%

O=C(c1cc(Cc2n[nH]c(=O)c3ccccc23)ccc1F)N1CCN(C(=O)C2CC2)CC1 + Cc1cnc(CNC(=O)c2c(=O)c3ccc(N4CCCN(C)CC4)nc3n3c2sc2ccccc23)cn1
IC50 (second compound 0.0316 µM): > 10000 nM | IC50 (second compound 0.1 µM): > 10000 nM | IC50 (second compound 0.316 µM): > 10000 nM | IC50 (second compound 1 µM): > 10000 nM | IC50 (second compound 3.16 µM): < 31.6 nM | IC50 (second compound 10 µM): < 31.6 nM | viability, T/C [1]: 92% | viability, T/C [2]: 91% | viability, T/C [3]: 96% | viability, T/C [4]: 80.2% | viability, T/C [5]: 81.4% | viability, T/C [6]: 68.9% | viability, T/C [7]: 86.3% | viability, T/C [8]: 80.6% | viability, T/C [9]: 82.8% | viability, T/C [10]: 70.3% | viability, T/C [11]: 71.4% | viability, T/C [12]: 56.4% | viability, T/C [13]: 71.8% | viability, T/C [14]: 77.9% | viability, T/C [15]: 73.4% | viability, T/C [16]: 78.1% | viability, T/C [17]: 73.3% | viability, T/C [18]: 58.1% | viability, T/C [19]: 68.2% | viability, T/C [20]: 64.2% | viability, T/C [21]: 59.4% | viability, T/C [22]: 64.3% | viability, T/C [23]: 60.9% | viability, T/C [24]: 54.1% | viability, T/C [25]: 47.9% | viability, T/C [26]: 50.1% | viability, T/C [27]: 52.2% | viability, T/C [28]: 56.8% | viability, T/C [29]: 52.3% | viability, T/C [30]: 48.8% | viability, T/C [31]: 46.1% | viability, T/C [32]: 48.4% | viability, T/C [33]: 47.4% | viability, T/C [34]: 46.6% | viability, T/C [35]: 50.9% | viability, T/C [36]: 41.8%
